Data as given in US20240300942A1, “SMALL MOLECULES FOR TREATEMENT OF CANCER” (VRise Therapeutics Inc., priority 2021, published 2024).

Assays:
NCI-H1373 = experiment: 3D cell proliferation assay, KRAS G12C mutant cell line NCI-H1373; type: cell-based; conditions: Homo sapiens, 168 h, 7 day
Description: (§1) Growth inhibition assays was carried out using 10% FBS supplemented media. Cells were seeded at a desired concentration of 1000-6000 cells/well in a well plate with desired number of wells. Test compounds at a desired concentration range were added after 24 hours. Growth was assessed using the Cell Titer-Glo (CTG. Cell Signaling) for measuring reduction at 0 h (prior to the addition of the test compound) and 3 day (2D) or 7 day (3D) after the addition of test compound. Absorbance read on a BIO-RAD iMark Microplate or any equivalent microplate reader at a predetermined a wavelength for e.g. 450 nm. Data was be analysed and percent inhibition and/or IC50 for each test compound is calculated accordingly. Results: Data provide for a representative Cpd A across various cell lines including selectivity

NCI-H1792 = experiment: 3D cell proliferation assay, KRAS G12C mutant cell line NCI-H1792; type: cell-based; conditions: Homo sapiens, 168 h, 7 day
Description: as §1

NCI-H23 = experiment: 3D cell proliferation assay, KRAS G12C mutant cell line NCI-H23; type: cell-based; conditions: Homo sapiens, 168 h, 7 day
Description: as §1

Calu-1 = experiment: 3D cell proliferation assay, KRAS G12C mutant cell line Calu-1; type: cell-based; conditions: Homo sapiens, 168 h, 7 day
Description: as §1

SW-837 = experiment: 3D cell proliferation assay, KRAS G12C mutant cell line SW-837; type: cell-based; conditions: Homo sapiens, SW837, 168 h, 7 day
Description: as §1

SW1463 = experiment: 3D cell proliferation assay, KRAS G12C mutant cell line SW1463; type: cell-based; conditions: Homo sapiens, 168 h, 7 day
Description: as §1

eCT26 = experiment: 3D cell proliferation assay, eCT26 (engineered for KRASG12C mutation); type: cell-based; conditions: 168 h, 7 day
Description: as §1

CO-04-0070 = experiment: 3D cell proliferation assay, CO-04-0070 patient derived cell line; type: cell-based; conditions: 168 h, CO-04-0070 (PDC), 7 day
Description: as §1

A549 = experiment: 2D cell proliferation assay, non-KRAS G12C mutant cell line A549; type: cell-based
Description: as §1

HCT116 = experiment: 2D cell proliferation assay, non-KRAS G12C mutant cell line HCT116; type: cell-based
Description: as §1

human KRAS G12C protein = human KRAS G12C protein (Homo sapiens, UniProt P01116, G12C); experiment: HTRF-based nucleotide exchange assay detecting GTP binding to K-Ras; type: biochemical; conditions: KRAS G12C (aa 2-169), SOS1 (aa 564-1049), read-out: IC50, SOS1 mediated nucleotide exchange
Description: Compounds (each 10 concentrations or any other concentration of choice at 3-fold or fold of choice for serial dilutions with a starting concentration of ˜300 um or 100 μM or 50 uM) were then delivered to the reaction wells using acoustic dispenser (Echo, Labcyte) and incubated with the Kras/aGST-Tb antibody for 1-hour at room temperature. After 1-hour incubation 5 μL of SOS1/GTP solution (SOS1—(corresponding to amino acid 564-1049) and GDP-DY-647P1 prepared using reaction buffer-20 mM Hepes, pH7.4, 150 mM Nacl, 5 mM MgCl2, 1 mM DTT, 0.05% BSA, 0.0025% NP40) was added to reaction wells to initiate the exchange reaction. HTRF based SOS1 mediated exchange of GDP to GTP was measured on a microplate reader PEHRAstar (BMG Labtech) at an excitation wavelength of 337 nm and emission wavelengths of 665 and 620 nm. No-SOS1 reaction or highest control compound concentration was used as blank and % inhibition was calculated and/or IC50 was determined using Sigmoidal dose response (variable slope) equation.

[1] = tested on: NCI-H358 Human Non-Small Cell Lung Cancer Xenograft; experiment: Anti-tumor effect in female Balb/c nude mice bearing NCI-H358 xenograft; type: in vivo
Description: NCI-H358 Xenograft was used to test representative compound of the invention where in NCI-H358 cells were inoculated in a mice model representing Lung Cancer with […] comprising of Control (Vehicle treated, GI) and two treatment cohorts/group namely Paclitaxel as standard (10 mg/kg Q3D, IV, G3) and test compound (100 mg/kg QD, Cpd A, G3) with each cohorts/group. Treatment was initiated when maximum tumor growth reached >200 mm3 and continued till the Vehicle are reached a maximum tumor volume of 2000 mm3.

Sequence of human KRAS G12C protein (P01116 2-169 isoform P01116-2 G12C): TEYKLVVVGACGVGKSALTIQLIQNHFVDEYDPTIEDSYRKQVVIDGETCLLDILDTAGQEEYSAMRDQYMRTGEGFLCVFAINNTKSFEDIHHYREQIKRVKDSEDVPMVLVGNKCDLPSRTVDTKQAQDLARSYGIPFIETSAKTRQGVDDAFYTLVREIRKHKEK

C=CC(=O)N1CCN(c2nc(OC[C@@H]3CCCN3C)c(C#N)c3c2CCN(c2cccc4cccc(Cl)c24)C3)C[C@@H]1CC#N (single isomer, unassigned) [Ex 25]
IC50 (NCI-H1373): 0.1 to 0.2 µM
IC50 (NCI-H1792): 0.2 to 1 µM
IC50 (NCI-H23): 0.1 to 0.2 µM
IC50 (Calu-1): 0.1 to 0.2 µM
IC50 (SW-837): 0.1 to 0.2 µM
IC50 (SW1463): < 0.1 µM
IC50 (eCT26): < 0.1 µM
IC50 (CO-04-0070): 0.1 to 0.2 µM
Fold Selectivity over KRAS G12C Mutant Cell Line (A549): ΩΩΩ (ΩΩΩ >600 fold)
Fold Selectivity over KRAS G12C Mutant Cell Line (HCT116): Ω (Ω = >100 fold)
IC50 (human KRAS G12C protein): < 0.01 µM
reduction in tumour volume as compared to Paclitaxel ([1]; 100 mg/kg QD vs Paclitaxel 10 mg/kg Q3DX3 Weeks, IV): statistically significant reduction
Tumor Growth inhibition (TGI) ([1]; 100 mg/kg QD, NCI-H358 xenograft, n=5): > 65%
reduction in tumor volume ([1]; 100 mg/kg QD, from day 3 onwards, P<0.01): statistically significant
effect on overall body weight ([1]; over the 21-day study period): No significant effect
